The results in this text go back to patent US20250368646A1, “TRICYCLIC FUSED WRN INHIBITORS” (Nimbus Wadjet, Inc., priority 2024, published 2025).

Assay [1] has as its target T1, human Werner helicase (WRN-BV08, amino acids 517-1235 with L1074F point mutation) (Homo sapiens, UniProt Q14191, L1074F).
T1 construct: [pFastBac1-WRN-(517-1235 L1074F)-TEV-8His]; 8xHis (C, cleaved yes); TEV cleavage site (ENLYFQG) (C); made in house; host or cells: Sf9 insect cells (baculovirus, pFastBac)
As to the kind of experiment: ADP-Glo WRN helicase ATPase inhibition assay. The format is biochemical. The note with it: 0.15 nM WRN, 5 μM ATP, 0.1 nM DNA duplex; 15 minutes preincubation, 60 minutes at 25° C.; read-out: ADP-Glo_hWRN_IC50. The source says:
Bovine skin gelatin (BSG), dimethyl sulfoxide (DMSO), Pluronic F-127 and tris(2-carboxyethyl)phosphine hydrochloride solution (TCEP) were purchased from Sigma-Aldrich (St. Louis, MO) at the highest level of purity possible. Bicine buffer solution was purchased from Alfa Aesar (Tewksbury, MA) and compound NSC-617145 was purchased from Tocris (Minneapolis, MN). DNA duplex was synthesized at BGI (Shenzhen, China) and was composed of strand 1 with the sequence 5′-[…]-3′ (SEQ ID NO.: 1) and strand 2 with the sequence 5′-[…]-3′ (SEQ ID NO.: 2). DNA strands were annealed by heating to 95° C. for 5 minutes followed by slow cooling to room temperature. Compounds in 100% DMSO (0.1 μl) were spotted into a 384-well white polystyrene Optiplate-384 (Perkin Elmer; Waltham, MA) assay plate using a LabCyte Echo 550 (Agilent; Santa Clara, CA). DMSO (0.1 μl) was added to columns 12, rows A-H and column 24, rows I-P for the maximum signal control. Compound NSC-617145 (0.1 μl) was added to columns 12, rows I-P and 24, rows A-H for the minimum signal control (100% inhibition). Compounds/DMSO were preincubated for 15 minutes at 25° C. with 5 μl 2×WRN (BV08), prepared as described below, in assay buffer containing 20 mM Bicine (pH=7.5), 1 mM MgCl2, 10 mM KCl, 0.1% Pluronic F-127, 0.005% BSG, 1 mM TCEP. The reaction was initiated by the addition of 5 μl 2× substrate mixture in assay buffer and incubated for 60 minutes at 25° C. The final concentrations of the assay components were 0.15 nM WRN, 5 μM ATP, and 0.1 nM DNA duplex. The final DMSO concentration was 1% and the reference compound concentration (NSC-617145) used for the minimal signal control was 20 μM. The reaction was stopped by the addition of the ADP-Glo Kit components (Promega; Madison, WI) as directed and the relative luminescence units (RLU) were read on an Envision 2104 (Perkin Elmer; Waltham, MA). % inhibition calculation:
Where RLU=relative luminescence units, sample=signal in sample well, and MIN and MAX are the respective minimum and maximum signal controls.
Four-Parameter IC50 Fit Equation:
Where top and bottom are normally allowed to float but may be fixed at 100 or 0 respectively in a 3-parameter fit. Y is the % inhibition and X is the compound concentration.
Molecular Biology and virus production. The DNA encoding human Werner helicase (Uniprot Q14191, amino acids 517-1235 with L1074F point mutation) was generated with codon-optimization for E. coli expression and subcloned into the pFastBac vector with a TEV cleavable 8×His tag (SEQ ID NO: 5) (WRN-BV08). The baculovirus from the expression plasmid WRN-BV08 was generated from transfection and amplification following the manufacturer's instructions.
Sf9 cells grown in SF900II media were infected with 1:200 WRN-BV08 P2 virus and incubated for protein expression for 72 h at 27° C. The WRN protein was purified using the following protocol. The cell pellets were thawed and resuspended in buffer A (50 mM Tris, pH 7.5, 500 mM NaCl, 1 mM TCEP, 10% Glycerol) supplemented with 0.5% CHAPS, 1 mM PMSF, […] Leupeptin, 1 μg/ml Pepstatin, and the Pierce Universal Nuclease and cocktail tablet. Cleared lysates were loaded onto a Ni Sepharose™ excel column and washed with buffer A and bound protein was eluted with buffer A supplemented with 300 mM imidazole. The eluted protein was dialyzed against buffer A and digested by His-tagged TEV (1:5 ratio) overnight at 4° C. ZnCl2 was added into the sample at final 15 μM before loading onto a second Ni Sepharose™ excel column. Untagged WRN protein was eluted from the column with buffer A supplemented with 20 mM imidazole, dialyzed overnight into buffer B (50 mM Tris, pH 7.5, 1 mM TCEP, 10% Glycerol) supplemented with 150 mM NaCl and loaded onto a Heparin column. Proteins were eluted with a step gradient of buffer B supplemented with 150 mM, 200 mM, 300 mM and 500 mM NaCl. […]
(In general: In ADP-Glo the light output rises with the ADP produced.)

The subject of assay [2] is p21 induction in HCT 116 cells. In words: p21 induction in cells (in-cell western, p21/GAPDH ratio). The format is cell-based. The note with it: Homo sapiens; HCT 116 colon carcinoma cell line, 24 h compound incubation; percent activation vs internal reference WRN inhibitor; read-out: P21_EC50. The procedure: The colon carcinoma cell line HCT 116 was obtained from ATCC and cultured in growth medium consisting of Mccoy's 5A Medium (Gibco 16600108) supplemented with […] (Transgene FS201-02) and 100 units/mL penicillin-streptomycin (Gibco 15140122) and maintained at 37° C. under […]. On the day of seeding, 2,000 cells in 30 μL of culture media were plated per well to Poly-D-Lysine 384 Well Black Clear Plates (Biocoat 356663) and incubated overnight at 37° C. under 5% CO2. The following day, compounds were serially diluted in DMSO for a total of 11 test concentrations. The typical starting concentration of cpds was 10 μM with 2-fold dilutions. Next, 150 nL of diluted compound was added in duplicate to the assay plate, using an Echo 655 (Labcyte). The plate was centrifuged at 500 RPM for 1 min and then incubated at 37° C. under 5% CO2 for 24 h. After 24 h, medium was removed, and cells were fixed by adding 40 µL of 4% paraformaldehyde solution to each well and incubated for 20 min at room temperature. The plate was then washed 4 times with 100 μL per well of wash buffer (PBS with 0.1% Tween-20) using a microplate washer. Next, 30 μL of ice-cold methanol was added to each well and the plate was incubated at −20° C. for 10 min. The plate was washed 4 times with 100 μL per well of wash buffer by a microplate washer, then 30 μL per well of blocking buffer (Intercept PBS blocking buffer (LI-COR 927-70001) with 0.05% Tween-20) was added and the plate was incubated at room temperature with shaking for 2 h. Next, to each test well, 20 μL of primary antibody solution (p21 Waf1/CIP (12D1) Rabbit mAb (Cell Signaling Technologies 2947) diluted 1:1000 and GAPDH (D4C6R) Mouse mAb (Cell Signaling Technologies 97166) diluted 1:2000 in blocking buffer) was added and the plate was placed at 4° C., overnight. The following day, the plate was washed 5 times with 100 μL per well of wash buffer using a microplate washer for 5 min. 20 μL per well of secondary antibody (IRDye 680CW Goat anti-Mouse IgG (H+L) (LI-COR 926-68070) diluted 1: 2000 in Blocking Buffer and IRDye 800CW Goat anti-Rabbit IgG (H+L) (LI-COR 926-32211) diluted 1: 2000 in Blocking Buffer) was then added and the plate was stored for 2 h in the dark at room temperature with shaking. The plate was then washed 4 times with 100 μL per well of wash buffer again using a microplate washer. Finally, the p21 signal and the GAPDH signal were quantified using a LI-COR Odyssey CLx Imager machine reading at 800 nm and 700 nm, respectively. Each plate contained DMSO control (low control) and an internal reference WRN inhibitor (high control) respectively. For quantitation, the 800 nm/700 nm ratio was calculated for each well to give fold p21 induction and then percent activation for each compound well was calculated as follows (100×(ratio cpd well-ratio low control)/(ratio high control−ratio low control)). EC50 values for each compound were generated after non-linear regression curve fitting using commercially available software.

T1 sequence (Q14191 with tags, fused parts or gaps L1074F): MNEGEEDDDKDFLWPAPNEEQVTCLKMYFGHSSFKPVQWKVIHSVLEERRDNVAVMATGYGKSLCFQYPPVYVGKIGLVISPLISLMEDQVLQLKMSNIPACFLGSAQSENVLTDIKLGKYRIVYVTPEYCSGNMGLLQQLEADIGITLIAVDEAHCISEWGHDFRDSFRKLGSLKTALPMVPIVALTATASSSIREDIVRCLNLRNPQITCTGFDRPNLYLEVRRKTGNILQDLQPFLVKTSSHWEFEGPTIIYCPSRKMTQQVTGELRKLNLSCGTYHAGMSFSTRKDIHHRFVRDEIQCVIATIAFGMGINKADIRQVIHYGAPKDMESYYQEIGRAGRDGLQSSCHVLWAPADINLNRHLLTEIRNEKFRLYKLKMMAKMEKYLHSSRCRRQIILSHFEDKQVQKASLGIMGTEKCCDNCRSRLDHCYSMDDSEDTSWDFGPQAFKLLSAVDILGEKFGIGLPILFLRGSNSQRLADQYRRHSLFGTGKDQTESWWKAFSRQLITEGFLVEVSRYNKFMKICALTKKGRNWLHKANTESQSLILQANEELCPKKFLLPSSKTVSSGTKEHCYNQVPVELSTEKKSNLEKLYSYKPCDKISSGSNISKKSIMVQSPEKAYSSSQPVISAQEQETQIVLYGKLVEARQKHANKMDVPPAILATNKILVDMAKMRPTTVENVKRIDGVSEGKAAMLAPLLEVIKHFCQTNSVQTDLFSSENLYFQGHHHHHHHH

With `COc1cc(-n2nc3c(=O)c(N4CCN(C(=O)c5ncnc(C)c5O)[C@H]5CC[C@@H]54)c4n(c3n2)[C@@H](C(=O)Nc2ccc(C(F)(F)F)cc2F)C[C@H]4C)ccn1` (single isomer, unassigned) [Compound I-10], the IC50 in assay [1] lay in the range of 100 to 500 nM. The EC50 in assay [2] lay within 2000 to 5000 nM.

On to `Cc1cnc2c(n1)c(=O)c(N1CCN(C(=O)c3ncnc(C)c3O)[C@H]3CC[C@@H]31)c1n2[C@H](C(=O)Nc2ccc(C(F)(F)F)cc2Cl)C[C@H]1C` (single isomer, unassigned) [Compound I-11], for which the IC50 in assay [1] was at most 5 nM. For the same compound, in assay [2], the EC50 is at most 500 nM.

Turning to `Cc1cnc2c(n1)c(=O)c(N1CCN(C(=O)c3ncnc(C)c3O)[C@H]3CC[C@@H]31)c1n2[C@@H](C(=O)Nc2ccc(C(F)(F)F)cc2Cl)C[C@@H]1C` (single isomer, unassigned) [Compound I-12], the IC50 in assay [1] is above 500 nM. The EC50 in assay [2] was above 5000 nM.

For `COc1cc(-n2nc3c(=O)c(N4CCN(C(=O)c5ncnc(C)c5O)[C@H]5CC[C@@H]54)c4n(c3n2)[C@@H](C(=O)Nc2ccc(C(F)(F)F)cc2Cl)C[C@@H]4C)ccn1` (single isomer, unassigned) [Compound I-14], the IC50 in assay [1] is 5 to 50 nM. Moreover, the EC50 in assay [2] is at most 500 nM.

Turning to `COc1cc(-n2nc3c(=O)c(N4CCN(C(=O)c5ncnc(C)c5O)[C@H]5CC[C@@H]54)c4n(c3n2)[C@@H](C(=O)Nc2ccc(C(F)(F)F)cc2F)C[C@@H]4C)ccn1` (single isomer, unassigned) [Compound I-15], the IC50 in assay [1] is at most 5 nM. The EC50 in assay [2] was at most 500 nM.

Take `COc1cc(-n2nc3c(=O)c(N4CCN(C(=O)c5ncnc(C)c5O)[C@H]5CC[C@@H]54)c4n(c3n2)[C@H](C(=O)Nc2ccc(C(F)(F)F)cc2F)C[C@H]4C)ccn1` (single isomer, unassigned) [Compound I-16]: the IC50 in assay [1] was in the range of 100 to 500 nM. In addition, in assay [2], the EC50 was in the range of 500 to 2000 nM.

On to `Cc1nc2c(=O)c(N3CCN(C(=O)c4ncnc(C)c4O)[C@H]4CC[C@@H]43)c3n(c2nc1C)[C@@H](C(=O)Nc1ccc(C(F)(F)F)cc1Cl)C[C@@H]3C` (single isomer, unassigned) [Compound I-17], for which the IC50 in assay [1] is at most 5 nM. In addition, the EC50 in assay [2] is at most 500 nM.

As for `Cc1nc2c(=O)c(N3CCN(C(=O)c4ncnc(C)c4O)[C@H]4CC[C@@H]43)c3n(c2nc1C)[C@H](C(=O)Nc1ccc(C(F)(F)F)cc1Cl)C[C@@H]3C` (single isomer, unassigned) [Compound I-18], the IC50 in assay [1] was at most 5 nM. Besides, the EC50 in assay [2] was at most 500 nM.

For the compound `Cc1nc2c(=O)c(N3CCN(C(=O)c4ncnc(C)c4O)[C@H]4CC[C@@H]43)c3n(c2nc1C)[C@@H](C(=O)Nc1ccc(C(F)(F)F)cc1Cl)C[C@H]3C` (single isomer, unassigned) [Compound I-19], the IC50 in assay [1] lay in the range of 50 to 100 nM. Besides, the EC50 in assay [2] lay within 500 to 2000 nM.

For the compound `Cc1nc2c(=O)c(N3CCN(C(=O)c4ncnc(C)c4O)[C@H]4CC[C@@H]43)c3n(c2nc1C)[C@H](C(=O)Nc1ccc(C(F)(F)F)cc1Cl)C[C@H]3C` (single isomer, unassigned) [Compound I-20], in assay [1], the IC50 was above 500 nM. For the same compound, the EC50 in assay [2] was above 5000 nM.

As to `Cc1ncnc(C(=O)N2CCN(c3c4n(c5nn(C6CC6)nc5c3=O)[C@@H](C(=O)Nc3ccc(C(F)(F)F)cc3Cl)C[C@H]4C)[C@H]3CC[C@@H]32)c1O` (single isomer, unassigned) [Compound I-21], in assay [1], the IC50 is at most 5 nM. Further, in assay [2], the EC50 was at most 500 nM.

Consider `Cc1ncnc(C(=O)N2CCN(c3c4n(c5nn(C6CC6)nc5c3=O)[C@H](C(=O)Nc3ccc(C(F)(F)F)cc3Cl)C[C@@H]4C)[C@H]3CC[C@@H]32)c1O` (single isomer, unassigned) [Compound I-22], for which the IC50 in assay [1] fell in the range of 100 to 500 nM. Besides, the EC50 in assay [2] is above 5000 nM.

For `Cc1ncnc(C(=O)N2CCN(c3c4n(c5nn(C6=CCOCC6)nc5c3=O)[C@@H](C(=O)Nc3ccc(C(F)(F)F)cc3Cl)C[C@H]4C)[C@H]3CC[C@@H]32)c1O` (single isomer, unassigned) [Compound I-23], in assay [1], the IC50 was at most 5 nM. The EC50 in assay [2] was at most 500 nM.

With `Cc1ncnc(C(=O)N2CCN(c3c4n(c5nn(C6=CCOCC6)nc5c3=O)[C@H](C(=O)Nc3ccc(C(F)(F)F)cc3Cl)C[C@@H]4C)[C@H]3CC[C@@H]32)c1O` (single isomer, unassigned) [Compound I-24], the IC50 in assay [1] is above 500 nM. The EC50 in assay [2] is above 5000 nM.

`Cc1ncnc(C(=O)N2CCN(c3c4n(c5nn(C6=CCOCC6)nc5c3=O)[C@H](C(=O)Nc3ccc(C(F)(F)F)cc3Cl)C[C@H]4C)[C@H]3CC[C@@H]32)c1O` (single isomer, unassigned) [Compound I-25]: in assay [1], the IC50 was above 500 nM. The EC50 in assay [2] was above 5000 nM.
